In PubChem BioAssay AID2060616 (Molecular Pharmacology Branch, DTP, NCI, 2025):

Tested on: 377384-186-R-J1-PDC complex spheroid viability
Experiment: Anticancer human tumor 377384-186-R-J1-PDC patient-derived pancreatic carcinoma cell line growth inhibition [CLK]
Conditions: for IC50: curve of first compound; for viability, T/C: stronger effect = lower value
In short: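 Patient-derived tumor cells grown as complex spheroids with HUVEC endothelial cells and mesenchymal stem cells, treated with drug combinations. Concentrations descend in half-log steps from near clinical Cmax, or from 10 microM if Cmax unknown.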

[1] = second compound 0.0316 µM, first compound 0.0316 µM
[2] = second compound 0.0316 µM, first compound 0.1 µM
[3] = second compound 0.0316 µM, first compound 0.316 µM
[4] = second compound 0.0316 µM, first compound 1 µM
[5] = second compound 0.0316 µM, first compound 3.16 µM
[6] = second compound 0.0316 µM, first compound 10 µM
[7] = second compound 0.1 µM, first compound 0.0316 µM
[8] = second compound 0.1 µM, first compound 0.1 µM
[9] = second compound 0.1 µM, first compound 0.316 µM
[10] = second compound 0.1 µM, first compound 1 µM
[11] = second compound 0.1 µM, first compound 3.16 µM
[12] = second compound 0.1 µM, first compound 10 µM
[13] = second compound 0.316 µM, first compound 0.0316 µM
[14] = second compound 0.316 µM, first compound 0.1 µM
[15] = second compound 0.316 µM, first compound 0.316 µM
[16] = second compound 0.316 µM, first compound 1 µM
[17] = second compound 0.316 µM, first compound 3.16 µM
[18] = second compound 0.316 µM, first compound 10 µM
[19] = second compound 1 µM, first compound 0.0316 µM
[20] = second compound 1 µM, first compound 0.1 µM
[21] = second compound 1 µM, first compound 0.316 µM
[22] = second compound 1 µM, first compound 1 µM
[23] = second compound 1 µM, first compound 3.16 µM
[24] = second compound 1 µM, first compound 10 µM
[25] = second compound 3.16 µM, first compound 0.0316 µM
[26] = second compound 3.16 µM, first compound 0.1 µM
[27] = second compound 3.16 µM, first compound 0.316 µM
[28] = second compound 3.16 µM, first compound 1 µM
[29] = second compound 3.16 µM, first compound 3.16 µM
[30] = second compound 3.16 µM, first compound 10 µM
[31] = second compound 10 µM, first compound 0.0316 µM
[32] = second compound 10 µM, first compound 0.1 µM
[33] = second compound 10 µM, first compound 0.316 µM
[34] = second compound 10 µM, first compound 1 µM
[35] = second compound 10 µM, first compound 3.16 µM
[36] = second compound 10 µM, first compound 10 µM
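Also: spheroids exposed to agents for 7 days before reading.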
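For viability, T/C in this document: luminescence signal used as a stand-in for viable cells.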

## CC1(C)CCC(CN2CCN(c3ccc(C(=O)NS(=O)(=O)c4ccc(NCC5CCOCC5)c([N+](=O)[O-])c4)c(Oc4cnc5[nH]ccc5c4)c3)CC2)=C(c2ccc(Cl)cc2)C1 + CN1CCN(c2cc(C(=O)Nc3cc4cc(-c5cnn(C)c5)ccc4cn3)ccn2)CC1
Second compound 0.0316 µM
  IC50: 5530 nM
Second compound 0.1 µM
  IC50: 5250 nM
Second compound 0.316 µM
  IC50: < 31.6 nM
Second compound 1 µM
  IC50: < 31.6 nM
Second compound 3.16 µM
  IC50: < 31.6 nM
Second compound 10 µM
  IC50: < 31.6 nM
[1]
  viability, T/C: 96%
[2]
  viability, T/C: 97.6%
[3]
  viability, T/C: 102%
[4]
  viability, T/C: 115%
[5]
  viability, T/C: 89.7%
[6]
  viability, T/C: 8.02%
[7]
  viability, T/C: 95.7%
[8]
  viability, T/C: 101%
[9]
  viability, T/C: 89.8%
[10]
  viability, T/C: 92.7%
[11]
  viability, T/C: 83.8%
[12]
  viability, T/C: 7.17%
[13]
  viability, T/C: 24.6%
[14]
  viability, T/C: 27.9%
[15]
  viability, T/C: 27.9%
[16]
  viability, T/C: 21.6%
[17]
  viability, T/C: 20.4%
[18]
  viability, T/C: 3.98%
[19]
  viability, T/C: 1.15%
[20]
  viability, T/C: 1.09%
[21]
  viability, T/C: 1.14%
[22]
  viability, T/C: 1.04%
[23]
  viability, T/C: 1.22%
[24]
  viability, T/C: 1.79%
[25]
  viability, T/C: 0.38%
[26]
  viability, T/C: 0.8%
[27]
  viability, T/C: 0.43%
[28]
  viability, T/C: 0.54%
[29]
  viability, T/C: 1.02%
[30]
  viability, T/C: 1.42%
[31]
  viability, T/C: 0.41%
[32]
  viability, T/C: 0.46%
[33]
  viability, T/C: 0.55%
[34]
  viability, T/C: 0.59%
[35]
  viability, T/C: 0.61%
[36]
  viability, T/C: 0.95%

## CC1COCCN1c1cc(C2(S(C)(=N)=O)CC2)nc(-c2ccnc3[nH]ccc23)n1 (stereo unspecified) + CN1CCN(c2cc(C(=O)Nc3cc4cc(-c5cnn(C)c5)ccc4cn3)ccn2)CC1
Second compound 0.0316 µM
  IC50: 2160 nM
Second compound 0.1 µM
  IC50: 1840 nM
Second compound 0.316 µM
  IC50: < 31.6 nM
Second compound 1 µM
  IC50: < 31.6 nM
Second compound 3.16 µM
  IC50: < 31.6 nM
Second compound 10 µM
  IC50: < 31.6 nM
[1]
  viability, T/C: 97.6%
[2]
  viability, T/C: 102%
[3]
  viability, T/C: 97.8%
[4]
  viability, T/C: 77.3%
[5]
  viability, T/C: 36.7%
[6]
  viability, T/C: 19.1%
[7]
  viability, T/C: 110%
[8]
  viability, T/C: 108%
[9]
  viability, T/C: 95.5%
[10]
  viability, T/C: 69.1%
[11]
  viability, T/C: 33.1%
[12]
  viability, T/C: 17.2%
[13]
  viability, T/C: 27%
[14]
  viability, T/C: 32%
[15]
  viability, T/C: 24.1%
[16]
  viability, T/C: 24.8%
[17]
  viability, T/C: 14.1%
[18]
  viability, T/C: 9.42%
[19]
  viability, T/C: 1.04%
[20]
  viability, T/C: 1.24%
[21]
  viability, T/C: 1.39%
[22]
  viability, T/C: 1.11%
[23]
  viability, T/C: 0.85%
[24]
  viability, T/C: 0.48%
[25]
  viability, T/C: 0.45%
[26]
  viability, T/C: 0.34%
[27]
  viability, T/C: 0.48%
[28]
  viability, T/C: 0.44%
[29]
  viability, T/C: 0.69%
[30]
  viability, T/C: 0.65%
[31]
  viability, T/C: 0.51%
[32]
  viability, T/C: 0.45%
[33]
  viability, T/C: 1.23%
[34]
  viability, T/C: 0.54%
[35]
  viability, T/C: 1.37%
[36]
  viability, T/C: 0.58%

## NC(=O)C(=Cn1cnc(-c2cc(C(F)(F)F)cc(C(F)(F)F)c2)n1)c1cncnc1 + CN1CCN(c2cc(C(=O)Nc3cc4cc(-c5cnn(C)c5)ccc4cn3)ccn2)CC1
Second compound 0.0316 µM
  IC50: 99.6 nM
Second compound 0.1 µM
  IC50: 50.5 nM
Second compound 0.316 µM
  IC50: < 9.49 nM
Second compound 1 µM
  IC50: < 9.49 nM
Second compound 3.16 µM
  IC50: < 9.49 nM
Second compound 10 µM
  IC50: < 9.49 nM
Second compound 0.0316 µM, first compound 0.00949 µM
  viability, T/C: 81.1%
Second compound 0.0316 µM, first compound 0.03 µM
  viability, T/C: 76%
Second compound 0.0316 µM, first compound 0.0949 µM
  viability, T/C: 50.1%
Second compound 0.0316 µM, first compound 0.3 µM
  viability, T/C: 21.7%
Second compound 0.0316 µM, first compound 0.949 µM
  viability, T/C: 5.88%
Second compound 0.0316 µM, first compound 3 µM
  viability, T/C: 2%
Second compound 0.1 µM, first compound 0.00949 µM
  viability, T/C: 87.6%
Second compound 0.1 µM, first compound 0.03 µM
  viability, T/C: 63.4%
Second compound 0.1 µM, first compound 0.0949 µM
  viability, T/C: 33.6%
Second compound 0.1 µM, first compound 0.3 µM
  viability, T/C: 14.3%
Second compound 0.1 µM, first compound 0.949 µM
  viability, T/C: 3.11%
Second compound 0.1 µM, first compound 3 µM
  viability, T/C: 1.52%
Second compound 0.316 µM, first compound 0.00949 µM
  viability, T/C: 21.2%
Second compound 0.316 µM, first compound 0.03 µM
  viability, T/C: 15%
Second compound 0.316 µM, first compound 0.0949 µM
  viability, T/C: 8.59%
Second compound 0.316 µM, first compound 0.3 µM
  viability, T/C: 1.27%
Second compound 0.316 µM, first compound 0.949 µM
  viability, T/C: 1.18%
Second compound 0.316 µM, first compound 3 µM
  viability, T/C: 2%
Second compound 1 µM, first compound 0.00949 µM
  viability, T/C: 0.39%
Second compound 1 µM, first compound 0.03 µM
  viability, T/C: 0.58%
Second compound 1 µM, first compound 0.0949 µM
  viability, T/C: 1.29%
Second compound 1 µM, first compound 0.3 µM
  viability, T/C: 1.21%
Second compound 1 µM, first compound 0.949 µM
  viability, T/C: 2.26%
Second compound 1 µM, first compound 3 µM
  viability, T/C: 2.39%
Second compound 3.16 µM, first compound 0.00949 µM
  viability, T/C: 0.7%
Second compound 3.16 µM, first compound 0.03 µM
  viability, T/C: 1.97%
Second compound 3.16 µM, first compound 0.0949 µM
  viability, T/C: 1.72%
Second compound 3.16 µM, first compound 0.3 µM
  viability, T/C: 1.71%
Second compound 3.16 µM, first compound 0.949 µM
  viability, T/C: 1.82%
Second compound 3.16 µM, first compound 3 µM
  viability, T/C: 2.81%
Second compound 10 µM, first compound 0.00949 µM
  viability, T/C: 0.61%
Second compound 10 µM, first compound 0.03 µM
  viability, T/C: 0.97%
Second compound 10 µM, first compound 0.0949 µM
  viability, T/C: 1.5%
Second compound 10 µM, first compound 0.3 µM
  viability, T/C: 0.79%
Second compound 10 µM, first compound 0.949 µM
  viability, T/C: 0.88%
Second compound 10 µM, first compound 3 µM
  viability, T/C: 0.91%
